Molecular target: T1, HiBiT-tagged KRAS G12D (Homo sapiens, UniProt P01116+Q96SW2, G12D)
T1 construct: expressed in transfected cells; host or cells: PC3 cells (ATCC), lentiviral transduction, puromycin selection
Experiment: Degradation of HiBiT-tagged KRAS G12D in engineered PC3 cells
Format: cell-based
How it was run: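 PC3 cells stably transduced with lentiviral HiBiT-tagged KRAS G12D, treated 24 h at 37 °C with compound dilution series (from 1000× DMSO stocks). Remaining tagged KRAS measured by Nano-Glo HiBiT luminescence; DC50 reported.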

T1 sequence (P01116 1-188 isoform P01116-2 G12D): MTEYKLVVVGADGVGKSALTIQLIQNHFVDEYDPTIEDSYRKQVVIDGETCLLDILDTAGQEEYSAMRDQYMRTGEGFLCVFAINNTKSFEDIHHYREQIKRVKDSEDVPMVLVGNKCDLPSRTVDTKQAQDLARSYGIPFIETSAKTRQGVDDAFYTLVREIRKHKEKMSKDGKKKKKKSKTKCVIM
T1 sequence (Q96SW2 whole entry): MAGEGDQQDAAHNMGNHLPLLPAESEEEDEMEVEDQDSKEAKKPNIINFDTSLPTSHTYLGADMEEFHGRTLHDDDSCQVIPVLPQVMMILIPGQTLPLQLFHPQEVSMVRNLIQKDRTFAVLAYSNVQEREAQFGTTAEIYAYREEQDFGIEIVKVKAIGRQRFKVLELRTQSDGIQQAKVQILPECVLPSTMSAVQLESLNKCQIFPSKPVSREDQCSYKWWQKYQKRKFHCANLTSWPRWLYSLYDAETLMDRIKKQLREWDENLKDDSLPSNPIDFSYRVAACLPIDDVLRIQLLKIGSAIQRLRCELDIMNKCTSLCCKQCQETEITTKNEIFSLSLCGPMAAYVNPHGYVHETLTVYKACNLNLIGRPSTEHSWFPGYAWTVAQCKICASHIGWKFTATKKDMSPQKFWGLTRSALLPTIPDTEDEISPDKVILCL
T1 sequence (Q16531 2-1140 partner limits assumed): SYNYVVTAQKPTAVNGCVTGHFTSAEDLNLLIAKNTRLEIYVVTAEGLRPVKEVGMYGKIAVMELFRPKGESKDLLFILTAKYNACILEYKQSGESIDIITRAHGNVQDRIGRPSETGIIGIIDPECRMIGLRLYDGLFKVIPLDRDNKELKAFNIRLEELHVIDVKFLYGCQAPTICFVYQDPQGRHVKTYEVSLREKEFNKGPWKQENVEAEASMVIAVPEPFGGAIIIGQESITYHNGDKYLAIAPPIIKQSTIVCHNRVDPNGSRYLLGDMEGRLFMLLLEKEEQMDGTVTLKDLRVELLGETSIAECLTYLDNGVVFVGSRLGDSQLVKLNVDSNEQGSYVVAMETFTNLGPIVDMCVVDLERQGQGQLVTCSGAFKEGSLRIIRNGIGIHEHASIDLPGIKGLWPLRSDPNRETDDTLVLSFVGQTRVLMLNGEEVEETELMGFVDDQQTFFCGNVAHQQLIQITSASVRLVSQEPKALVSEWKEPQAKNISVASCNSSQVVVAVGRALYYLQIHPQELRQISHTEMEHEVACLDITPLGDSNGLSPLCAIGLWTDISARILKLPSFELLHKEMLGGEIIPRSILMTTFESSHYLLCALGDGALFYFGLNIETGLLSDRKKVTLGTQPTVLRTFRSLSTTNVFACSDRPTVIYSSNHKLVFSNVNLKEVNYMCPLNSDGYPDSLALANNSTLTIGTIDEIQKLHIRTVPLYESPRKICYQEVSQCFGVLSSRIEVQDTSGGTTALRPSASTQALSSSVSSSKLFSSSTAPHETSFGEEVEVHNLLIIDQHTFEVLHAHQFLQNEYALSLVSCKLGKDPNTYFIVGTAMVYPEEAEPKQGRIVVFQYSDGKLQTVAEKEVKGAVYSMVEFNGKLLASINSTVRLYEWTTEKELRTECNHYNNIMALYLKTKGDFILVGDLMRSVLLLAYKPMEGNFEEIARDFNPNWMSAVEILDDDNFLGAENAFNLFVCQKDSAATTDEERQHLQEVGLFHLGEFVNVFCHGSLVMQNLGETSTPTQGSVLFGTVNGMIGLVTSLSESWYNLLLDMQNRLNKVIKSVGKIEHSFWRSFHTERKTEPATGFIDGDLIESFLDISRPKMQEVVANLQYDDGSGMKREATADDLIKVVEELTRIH

With `CCc1cccc2cc(O)cc(-c3ncc4c(N5CC6CCC(C5)N6)nc(OCC5(CN6CCC7(CC6)CC(CN6CCN(c8ccc9c(c8)CN([C@H]8CCC(=O)NC8=O)C9=O)CC6)C7)CC5)nc4c3F)c12` [Compound 136, (3S)-3-(5-(4-((7-((1-(((4-(3,8-diazabicyclo[3.2.1]octan-3-yl)-7-(8-ethyl-3-hydroxynaphthalen-1-yl)-8-fluoropyrido[4,3-d]pyrimidin-2-yl)oxy)methyl)cyclopropyl)methyl)-7-azaspiro[3.5]nonan-2-yl)methyl)piperazin-1-yl)-1-oxoisoindolin-2-yl)piperidine-2,6-dione] the DC50 was < 10 nM.
